Assay results from PubChem BioAssay AID330 (DTP/NCI, 2004).
Values joined by “and” are separate entries in the source; they are usually repeats but may differ in a detail not shown here. Equal values may be shown once. Inconclusive results and toxic doses are left out. Rule for the calls: active = survival T/C of 150% or more; inactive = T/C below 125% in these data. Square brackets hold non-standard residues; d marks the D form. Peptide text beside a SMILES is read from it. * marks the point of attachment. ξ: configuration not given here. ξF = NC(Cc1ccccc1)C(=O)O; Cbz = O=C(OCc1ccccc1)*

Tested on: P388 leukemia ip, CD2F1 mice, survival T/C
Assay: NCI In Vivo Anticancer Drug Screen. Data for tumor model P388 Leukemia (intraperitoneal) in CD2F1 (CDF1) mice
Conditions: endpoint: median survival time, higher = longer survival
Method in brief: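 Mice carrying the transplanted tumor received test compound or vehicle. Survival was recorded in each group, and the value is the treated-group measurement divided by that of the vehicle-treated control group.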

[1] = dose: 100.0 mg/kg/injection, schedule: Q01DX009 (ip), vehicle: saline with Tween-80
[2] = dose: 50.0 mg/kg/injection, schedule: Q01DX009 (ip), vehicle: Klucel (hydroxypropylcellulose) (HPC)
[3] = dose: 50.0 mg/kg/injection, schedule: Q01DX005 (ip), vehicle: saline with Tween-80
[4] = dose: 100.0 mg/kg/injection, schedule: Q01DX005 (ip), vehicle: saline with Tween-80
[5] = dose: 200.0 mg/kg/injection, schedule: Q01DX005 (ip), vehicle: saline with Tween-80
[6] = dose: 50.0 mg/kg/injection, schedule: Q01DX005 (ip), vehicle: Klucel (hydroxypropylcellulose) (HPC)
[7] = dose: 100.0 mg/kg/injection, schedule: Q01DX005 (ip), vehicle: Klucel (hydroxypropylcellulose) (HPC)
[8] = dose: 200.0 mg/kg/injection, schedule: Q01DX005 (ip), vehicle: Klucel (hydroxypropylcellulose) (HPC)
[9] = dose: 12.5 mg/kg/injection, schedule: Q01DX009 (ip), vehicle: Klucel (hydroxypropylcellulose) (HPC)
[10] = dose: 25.0 mg/kg/injection, schedule: Q01DX009 (ip), vehicle: Klucel (hydroxypropylcellulose) (HPC)
[11] = dose: 50.0 mg/kg/injection, schedule: Q01DX009 (ip), vehicle: saline with Tween-80

Measured: T/C

O=C(O)C[N-]CC(=O)O.OO.[O]=[V]
inactive: dose: 3.75 mg/kg/injection, schedule: Q01DX005 (ip), vehicle: saline with Tween-80 102 % of control | dose: 7.5 mg/kg/injection, schedule: Q01DX005 (ip), vehicle: saline with Tween-80 105 % of control | dose: 15.0 mg/kg/injection, schedule: Q01DX005 (ip), vehicle: saline with Tween-80 112 % of control | dose: 30.0 mg/kg/injection, schedule: Q01DX005 (ip), vehicle: saline with Tween-80 120 % of control

[Cl][Pd][Cl].[NH-]C(C(=O)O)c1ccccc1.[NH-]C(C(=O)O)c1ccccc1 (configuration not stated)
inactive: dose: 100.0 mg/kg/injection, schedule: Q04DX003 (ip), vehicle: saline 103 % of control | dose: 200.0 mg/kg/injection, schedule: Q04DX003 (ip), vehicle: saline 97 % of control | dose: 400.0 mg/kg/injection, schedule: Q04DX003 (ip), vehicle: saline 109 % of control

NC(=O)C(Cl)(Cl)Cl
inactive: [1] 100 % of control | dose: 200.0 mg/kg/injection, schedule: Q01DX009 (ip), vehicle: saline with Tween-80 99 % of control | dose: 400.0 mg/kg/injection, schedule: Q01DX009 (ip), vehicle: saline with Tween-80 99 % of control

COC(=O)C(CC(=O)c1cc2c(cc1Br)OCO2)(Cc1cc(OC)c(OC)c(OC)c1I)C(=O)OC
inactive: dose: 3.12 mg/kg/injection, schedule: Q01DX009 (ip), vehicle: saline 97 % of control | dose: 6.25 mg/kg/injection, schedule: Q01DX009 (ip), vehicle: saline 98 % of control | dose: 12.5 mg/kg/injection, schedule: Q01DX009 (ip), vehicle: saline 97 % of control | dose: 25.0 mg/kg/injection, schedule: Q01DX009 (ip), vehicle: saline 98 % of control | dose: 100.0 mg/kg/injection, schedule: Q01DX001 (ip), vehicle: saline 100 % of control | dose: 200.0 mg/kg/injection, schedule: Q01DX001 (ip), vehicle: saline 98 % of control | dose: 400.0 mg/kg/injection, schedule: Q01DX001 (ip), vehicle: saline 100 % of control

NC(=O)OCCCCOC(N)=O
inactive: [2] 100 % of control | dose: 100.0 mg/kg/injection, schedule: Q01DX009 (ip), vehicle: Klucel (hydroxypropylcellulose) (HPC) 98 % of control

Cn1c(NC(=O)C(F)(F)F)cc(=O)n(C)c1=O
inactive: [3] 102 % of control | [4] 95 % of control | [5] 101 % of control

O=C(Nc1ccc(Cl)cc1)Nc1nnc2nc(C(C(=O)c3cccs3)c3nc4nnc(NC(=O)Nc5ccc(Cl)cc5)n4[nH]c3=O)c(=O)[nH]n12
inactive: dose: 60.0 mg/kg/injection, schedule: Q01DX005 (ip), vehicle: saline with Tween-80 91 % of control | dose: 120.0 mg/kg/injection, schedule: Q01DX005 (ip), vehicle: saline with Tween-80 94 % of control

Cc1ccc2cccc(OC(=O)c3c(F)cccc3Cl)c2n1
inactive: [6] 99 % of control | [7] 96 % of control | [8] 99 % of control

O=C1CCC(N(CC#CCN(C2=NC(=O)CC2)c2ccccc2)c2ccccc2)=N1
inactive: dose: 60.0 mg/kg/injection, schedule: Q01DX005 (ip), vehicle: Klucel (hydroxypropylcellulose) (HPC) 103 % of control | dose: 120.0 mg/kg/injection, schedule: Q01DX005 (ip), vehicle: Klucel (hydroxypropylcellulose) (HPC) 100 % of control | dose: 240.0 mg/kg/injection, schedule: Q01DX005 (ip), vehicle: Klucel (hydroxypropylcellulose) (HPC) 97 % of control

O=c1cnn(C2OC(CO)C(O)C2O)c(=O)[nH]1 (configuration not stated)
inactive: [9] 118 % of control and 120 % of control | [10] 109 % of control and 110 % of control

O=C(O)CNC(=O)CNC(=O)C(Cc1ccccc1)NC(=O)OCc1ccccc1 (stereo not drawn) (Cbz-[ξF]-Gly-Gly-OH)
inactive: [3] 100 % of control | [4] 99 % of control | [5] 91 % of control

C=C(C)C(=O)OC1CCC2(C)C(CCC3C2CCC2(C)C(c4ccc(=O)oc4)CC4OC432)C1 (configuration not stated)
inactive: dose: 1.25 mg/kg/injection, schedule: Q01DX009 (ip), vehicle: saline with Tween-80 98 % of control | dose: 2.5 mg/kg/injection, schedule: Q01DX009 (ip), vehicle: saline with Tween-80 100 % of control | dose: 5.0 mg/kg/injection, schedule: Q01DX009 (ip), vehicle: saline with Tween-80 122 % of control | dose: 10.0 mg/kg/injection, schedule: Q01DX009 (ip), vehicle: saline with Tween-80 106 % of control | dose: 20.0 mg/kg/injection, schedule: Q01DX009 (ip), vehicle: saline with Tween-80 100 % of control

O=C1c2ccccc2-c2c3c(cc4ccnc1c24)OCO3
inactive: dose: 3.12 mg/kg/injection, schedule: Q01DX009 (ip), vehicle: saline with Tween-80 115 % of control | dose: 6.25 mg/kg/injection, schedule: Q01DX009 (ip), vehicle: Klucel (hydroxypropylcellulose) (HPC) 101 % of control | dose: 6.25 mg/kg/injection, schedule: Q01DX009 (ip), vehicle: saline with Tween-80 105 % of control | [9] 97 % of control | dose: 12.5 mg/kg/injection, schedule: Q01DX009 (ip), vehicle: saline with Tween-80 89 % of control | [10] 99 % of control | [2] 100 % of control | [11] 99 % of control | [1] 99 % of control

Cn1cc(C#N)c(=O)[nH]c1=O
inactive: [6] 101 % of control | [7] 98 % of control | [8] 104 % of control

CCCS(=O)(=O)CCC(=O)c1cccs1
inactive: dose: 100.0 mg/kg/injection, schedule: Q04DX002 (ip), vehicle: saline 104 % of control | dose: 200.0 mg/kg/injection, schedule: Q04DX002 (ip), vehicle: saline 100 % of control | dose: 400.0 mg/kg/injection, schedule: Q04DX002 (ip), vehicle: saline 101 % of control

CC(C)c1cccc(C(C)C)c1NC(=O)CCc1n[nH]c(=S)o1
inactive: [3] 105 % of control | [4] 106 % of control | [5] 105 % of control

CN(C)C1CCc2ccccc2C1OC(=O)c1ccccc1 (configuration not stated)
inactive: [11] 101 % of control | [1] 107 % of control

Cc1cc(N=Nc2ccc(NC(=O)c3ccc(N)cc3)cc2C)ccc1N=Nc1ccc2cc(S(=O)(=O)O)cc(S(=O)(=O)O)c2c1
inactive: [3] 97 % of control | dose: 50.0 mg/kg/injection, schedule: Q01DX005 (ip), vehicle: saline 107 % of control | dose: 50.0 mg/kg/injection, schedule: Q01DX005 (ip), vehicle: suspension in saline 101 % of control | [4] 90 % of control | dose: 100.0 mg/kg/injection, schedule: Q01DX005 (ip), vehicle: saline 121 % of control | dose: 100.0 mg/kg/injection, schedule: Q01DX005 (ip), vehicle: suspension in saline 111 % of control | [5] 113 % of control | dose: 200.0 mg/kg/injection, schedule: Q01DX005 (ip), vehicle: saline 121 % of control | dose: 200.0 mg/kg/injection, schedule: Q01DX005 (ip), vehicle: suspension in saline 113 % of control | dose: 400.0 mg/kg/injection, schedule: Q01DX005 (ip), vehicle: saline with Tween-80 109 % of control

COc1ccc(S(=O)(=O)N/N=C/CN(C)C)cc1
inactive: dose: 25.0 mg/kg/injection, schedule: Q01DX005 (ip), vehicle: saline with Tween-80 101 % of control | [3] 101 % of control | [4] 101 % of control | [5] 99 % of control

C=C1C(C#N)=C(SC)SC(=S)N1CC
inactive: dose: 50.0 mg/kg/injection, schedule: Q01DX001 (ip), vehicle: saline with Tween-80 95 % of control | dose: 100.0 mg/kg/injection, schedule: Q01DX001 (ip), vehicle: saline with Tween-80 92 % of control | dose: 200.0 mg/kg/injection, schedule: Q01DX001 (ip), vehicle: saline with Tween-80 93 % of control | dose: 400.0 mg/kg/injection, schedule: Q01DX001 (ip), vehicle: saline with Tween-80 95 % of control

CN1C2CCC1C(CCl)C(O)C2 (configuration not stated)
inactive: dose: 50.0 mg/kg/injection, schedule: Q01DX009 (ip), vehicle: saline 92 % of control | dose: 100.0 mg/kg/injection, schedule: Q01DX009 (ip), vehicle: saline 88 % of control | dose: 200.0 mg/kg/injection, schedule: Q01DX009 (ip), vehicle: saline 88 % of control

Nc1ccc(C(=O)Oc2ccc([N+](=O)[O-])cc2)cc1
inactive: dose: 100.0 mg/kg/injection, schedule: Q04DX003 (ip), vehicle: saline with Tween-80 95 % of control | dose: 200.0 mg/kg/injection, schedule: Q04DX003 (ip), vehicle: saline with Tween-80 90 % of control

CCCCCCCCCCn1cc[nH]c1=S
inactive: dose: 25.0 mg/kg/injection, schedule: Q01DX005 (ip), vehicle: Klucel (hydroxypropylcellulose) (HPC) 103 % of control | [6] 107 % of control and 115 % of control | [7] 105 % of control and 112 % of control | [8] 117 % of control
